Some test systems named below: SK-MEL-28 melanoma; SK-MEL-5 melanoma; RPMI-8226 leukemia; MOLT-4 leukemia; CCRF-CEM leukemia; HT29 colon; K-562 leukemia; NCI-H226 lung; M14 melanoma; BT-549 breast.
Holding throughout (test): NCI anticancer screen, dose series, 48 h

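Results reflect a 48-hour exposure of cells in 96-well plates to compound at five concentrations. At the GI50, growth is halved. Definition used: TGI = concentration required for complete inhibition of growth.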

In the case of `CCC(C)C1=C(O)[N+]2([O-])Oc3ccc(C4=C(O)C(=O)C(c5ccc(O)cc5)=C(O)C4=O)cc3OC2(C(C)CC)C(=O)N1O` (stereo not given), the GI50 in the test with SK-MEL-28 melanoma is 85.7 µM; with SK-MEL-5 melanoma it was 6.82 µM; in the test with RPMI-8226 leukemia, 6.74 µM; in the test on MOLT-4 leukemia, 11 µM; in the test on CCRF-CEM leukemia, 13.1 µM; with HT29 colon it was 31.4 µM. The GI50 in the test on K-562 leukemia is 8.03 µM; in the test on NCI-H226 lung, 3.81 µM; with M14 melanoma, 2.75 µM; in the test on BT-549 breast, 8.74 µM. Further, the TGI is greater than 100 µM in the test on SK-MEL-28 melanoma; 27.3 µM in the test with SK-MEL-5 melanoma; greater than 100 µM in the test with RPMI-8226 leukemia; 41.8 µM in the test with MOLT-4 leukemia; 76.7 µM in the test on CCRF-CEM leukemia; greater than 100 µM in the test on HT29 colon. The TGI in the test on K-562 leukemia was greater than 100 µM; with NCI-H226 lung, greater than 100 µM; in the test on M14 melanoma, 11.5 µM; with BT-549 breast it was greater than 100 µM.
As to `Oc1[nH]c2ccccc2c1/C=c1/ccc2c(c1)N=C(c1ccc(C(F)(F)F)cc1)N=2`, the GI50 was 3.11 µM with SK-MEL-28 melanoma; 8.72 µM in the test on SK-MEL-5 melanoma; 1.34 µM with RPMI-8226 leukemia; 1.67 µM with MOLT-4 leukemia; 1.65 µM with CCRF-CEM leukemia; 1.61 µM in the test with HT29 colon. In addition, the GI50 is 1.41 µM in the test on K-562 leukemia, 14.5 µM in the test with NCI-H226 lung, 2.05 µM in the test on M14 melanoma and 2.04 µM with BT-549 breast. The TGI in the test with SK-MEL-28 melanoma came out at 16.2 µM; in the test on SK-MEL-5 melanoma it was 20.9 µM; in the test on RPMI-8226 leukemia it was 4 µM; in the test with MOLT-4 leukemia, 3.94 µM; in the test with CCRF-CEM leukemia, 5.05 µM; in the test with HT29 colon it was 11.3 µM. The TGI came to 3.46 µM in the test with K-562 leukemia, 30.5 µM in the test on NCI-H226 lung, 9.04 µM in the test on M14 melanoma and 9.25 µM in the test on BT-549 breast.
As for `CC(=O)/C(Br)=C/c1ccc(Br)o1`, the GI50 in the test with SK-MEL-28 melanoma is 2.87 µM; in the test on SK-MEL-5 melanoma, 10.3 µM; in the test on RPMI-8226 leukemia, 4.73 µM; in the test on MOLT-4 leukemia it was 3.03 µM; in the test with CCRF-CEM leukemia, 2.04 µM; in the test with HT29 colon, 4.21 µM. Also, the GI50 in the test on K-562 leukemia is 2.99 µM; with NCI-H226 lung it was 12.7 µM; in the test on M14 melanoma, 4.71 µM; in the test with BT-549 breast it was 5.94 µM. Besides, the TGI in the test with SK-MEL-28 melanoma stood at 9.18 µM; in the test on SK-MEL-5 melanoma, 22.6 µM; with RPMI-8226 leukemia, 13.1 µM; in the test with MOLT-4 leukemia, 15.3 µM; with CCRF-CEM leukemia, 5.85 µM; in the test with HT29 colon, 14.6 µM. In addition, the TGI with K-562 leukemia is greater than 36.5 µM; in the test on NCI-H226 lung, 26.2 µM; in the test with M14 melanoma, 13.7 µM; with BT-549 breast, 18.6 µM.
On to `Cc1ccc(-c2nc(-c3nccc4ccccc34)oc2-c2ccccc2)cc1`, for which the TGI in the test on SK-MEL-28 melanoma, in the test with SK-MEL-5 melanoma, in the test on RPMI-8226 leukemia, in the test with MOLT-4 leukemia, with CCRF-CEM leukemia and in the test with HT29 colon was greater than 100 µM in each case. In addition, the TGI in the test with K-562 leukemia, in the test on NCI-H226 lung, in the test with M14 melanoma and in the test on BT-549 breast was greater than 100 µM throughout.
With `COc1ccc(C2C(C#N)=C(N)Oc3c2sc2c(Br)cccc32)cc1` (stereo not given), the GI50 in the test with SK-MEL-28 melanoma was 8.15 µM; in the test on SK-MEL-5 melanoma, 2.4 µM; with RPMI-8226 leukemia, 2.9 µM; with MOLT-4 leukemia, 1.55 µM; with CCRF-CEM leukemia, 1.63 µM; with HT29 colon, 3.8 µM. The GI50 in the test on K-562 leukemia was 0.404 µM; with NCI-H226 lung, 6.62 µM; with M14 melanoma, 1.46 µM; in the test on BT-549 breast it was 4.76 µM. Besides, the TGI with SK-MEL-28 melanoma was found to be 24.1 µM; in the test with SK-MEL-5 melanoma, 10.7 µM; in the test on RPMI-8226 leukemia it was 12.5 µM; in the test on MOLT-4 leukemia it was 6.78 µM; with CCRF-CEM leukemia, 7.02 µM; with HT29 colon it was 11.2 µM. Also, the TGI in the test on K-562 leukemia worked out at 5.79 µM; with NCI-H226 lung it was 24 µM; in the test with M14 melanoma it was 6.8 µM; with BT-549 breast, 25.3 µM.
`CCCc1nc(Cl)c(Cl)c(Cl)n1`: the TGI in the test on SK-MEL-28 melanoma was greater than 100 µM; in the test with SK-MEL-5 melanoma, greater than 100 µM; in the test with RPMI-8226 leukemia, 3.94 µM; in the test with MOLT-4 leukemia it was 46.9 µM; in the test on CCRF-CEM leukemia it was greater than 44.2 µM; with HT29 colon, greater than 100 µM. Also, the TGI in the test with K-562 leukemia is greater than 45.9 µM; in the test on NCI-H226 lung, greater than 94.6 µM; in the test on M14 melanoma it was greater than 76.1 µM; with BT-549 breast, 77.9 µM.
For the molecule `Cn1cc(C2=C(c3cn(CCCN)c4ccccc34)C(=O)NC2=O)c2ccccc21`, the GI50 in the test on SK-MEL-28 melanoma was 4.7 µM; with SK-MEL-5 melanoma, 3.77 µM; with RPMI-8226 leukemia it was 5.91 µM; in the test with MOLT-4 leukemia, 6.06 µM; with CCRF-CEM leukemia, 2.59 µM; in the test with HT29 colon it was 4.74 µM. The GI50 in the test with K-562 leukemia was 4.29 µM; with NCI-H226 lung it was 5.87 µM; in the test with M14 melanoma it was 4.38 µM; in the test with BT-549 breast, 5.07 µM. The TGI with SK-MEL-28 melanoma is 9.3 µM; in the test on SK-MEL-5 melanoma it was 7.26 µM; with RPMI-8226 leukemia it was 12.5 µM; in the test with MOLT-4 leukemia it was 18.5 µM; in the test on CCRF-CEM leukemia, 12.1 µM; in the test on HT29 colon, 18.4 µM. In addition, the TGI in the test with K-562 leukemia is 14.6 µM; in the test with NCI-H226 lung, greater than 18 µM; in the test on M14 melanoma, 8.6 µM; in the test with BT-549 breast, 11.5 µM.
`Cc1ccc(Cl)c(NS(=O)(=O)c2ccc(-c3cnc(C4CC4)o3)cc2)c1`: the GI50 was 2.77 µM in the test with SK-MEL-28 melanoma; 0.399 µM in the test with SK-MEL-5 melanoma; 0.318 µM with RPMI-8226 leukemia; 0.166 µM in the test on MOLT-4 leukemia; 0.0777 µM in the test on CCRF-CEM leukemia; 0.0517 µM in the test with HT29 colon. Besides, the GI50 is 0.0479 µM in the test with K-562 leukemia, 1.03 µM with NCI-H226 lung, 0.0698 µM with M14 melanoma and 0.299 µM in the test on BT-549 breast. Besides, the TGI in the test on SK-MEL-28 melanoma was greater than 58.5 µM; with SK-MEL-5 melanoma, 3.72 µM; in the test with RPMI-8226 leukemia, 24.8 µM; in the test with MOLT-4 leukemia, greater than 48.3 µM; in the test with CCRF-CEM leukemia it was greater than 100 µM; with HT29 colon, 16.2 µM. For the same molecule, the TGI in the test with K-562 leukemia is greater than 100 µM; in the test with NCI-H226 lung, 28.1 µM; in the test with M14 melanoma, greater than 42.6 µM; with BT-549 breast, 14.8 µM.
